Like-named read-outs stand apart in the source and are kept apart here. Residues, ends and D or L forms follow the SMILES beside them. No end group written: not given here.
Test system: telencephalon neurons from 9-day-old chicken embryos (cortical neurons)
Format: cell-based
Method: 1.1.2. Assay Conditions: • Assay: 2% low serum cell culture assay • Cell source: telencephalon neurons from 9-day-old chicken embryos (Lohman Brown hybrid) • Nutrition medium: EMEM with 1 g glucose/l, 2% FCS, 0.01% gentamycin sulfate and 2 mM L-glutamine • Group size: 4 independent experiments were performed (n =8 for DLHW (SEQ ID NO:2), NIVTPR (SEQ ID NO:3), HGFLPR (SEQ ID NO:4), NMVPFPR (SEQ ID NO:5) and the test matrix) • Evaluation of the effects: • MTT viability assay; absorbance (OD) measured with a plate reader • Duration of one single experiment: • 8 days
(§1) 2.2.1.1. Test Item (DLHW) (SEQ ID NO:2): • Vehicle for dilution: test matrix (6.18 mg/ml NaCl and 0.35 mg/ml KCl) • Application mode: once at the 1st day • Application period: for the whole experiment, i.e. 8 days, from 1st day onwards • Concentrations: 5.6, 11.25, 22.5, 45, 90, 180, 360 and 720 μg/ml • Administration volume: 0.625, 1.25, 2.5, 5, 10, 20, 40, 80 μl/ml medium
as §1, with “2.2.1.2.” for “2.2.1.1.”, “(NIVTPR)” for “(DLHW)”, “NO:3):” for “NO:2):”
as §1, with “2.2.1.3.” for “2.2.1.1.”, “(HGFLPR)” for “(DLHW)”, “NO:4):” for “NO:2):”
as §1, with “2.2.1.4.” for “2.2.1.1.”, “(NMPFPR)” for “(DLHW)”, “NO:5):” for “NO:2):”
2.3. Assay Conditions • Cell culture assays: 2% low serum assay • Cell source: telencephalon neurons from 9-day-old chicken embryos (Lohman Brown hybrid) • Nutrition medium: EMEM with 1 g glucose/l, 2% FCS, 0.01% gentamycin sulfate and 2mM L-glutamine • Group size: 4 independent experiments were performed (n =8for DLHW (SEQ ID NO:2) ant and the test matrix; n =224 for controls) • Evaluation of the effects: MTT viability assay; absorbance (OD) measured with a plate reader • Duration of one single experiment: 8 days
The analytical procedure used in the present example is a 2% low serum assay using isolated avian cortical neurons. With this in vitro cell culture assay the neuroprotective and/or neurotrophic potential of compounds can be evaluated by determining the viability of living neurons after a distinct time period in culture. The method for measuring the amount of viable neurons is the MTT-assay.
To the isolated nerve cells the peptides or test matrix were added once, i.e. at the first day. The 8 concentrations comprising dose range was between 5.6, 11.25, 22.5, 45, 90, 180, 360 and 720 μg/ml medium; the volumes applied were 0.625, 1.25, 2.5, 5, 10, 20, 40, 80 μl/ml medium.
Neuronal viability of cultures was determined with the MTT-assay using a plate-reader (570 nm). The MTT-assay is a sensitive assay measuring the mitochondrial dehydrogenase activity in viable cells only. It is performed according to the method described by Mosmann, J. Immunol. Meth, 1983, 55-63. This assay is based on the reduction of yellow MTT (3-(4,5-dimethylthiazol-2-yl)-2,5,diphenyl tetrazolium bromide), to dark blue formazan crystals by mitochondrial dehydrogenases (succinate dehydrogenase). Since this reaction is catalysed in living cells only the assay can be used for the quantification of cell viability. […]

[1] = 5.6 μg/ml, added at 1DIV, 8 days
[2] = 11.25 μg/ml, added at 1DIV, 8 days
[3] = 22.5 μg/ml, added at 1DIV, 8 days
[4] = 45 μg/ml, added at 1DIV, 8 days
[5] = 90 μg/ml, added at 1DIV, 8 days
[6] = 180 μg/ml, added at 1DIV, 8 days
[7] = 360 μg/ml, added at 1DIV, 8 days
[8] = 720 μg/ml, added at 1DIV, 8 days
[9] = Lohman Brown hybrid, chicken, 8 days, 5.6 μg/ml
[10] = Lohman Brown hybrid, chicken, 8 days, 11.25 μg/ml
[11] = Lohman Brown hybrid, chicken, 8 days, 22.5 μg/ml
[12] = Lohman Brown hybrid, chicken, 8 days, 45 μg/ml
[13] = Lohman Brown hybrid, chicken, 8 days, 90 μg/ml
[14] = Lohman Brown hybrid, chicken, 8 days, 180 μg/ml
[15] = Lohman Brown hybrid, chicken, 8 days, 360 μg/ml
[16] = Lohman Brown hybrid, chicken, 8 days, 720 μg/ml

With `CC(C)C[C@H](NC(=O)[C@@H](N)CC(=O)O)C(=O)N[C@@H](Cc1c[nH]cn1)C(=O)N[C@@H](Cc1c[nH]c2ccccc12)C(=O)O` [DLHW] (H-DLHW-OH; N-terminus and C-terminus assumed) as the compound, how does the “viability of cortical neurons, MTT, mean optical density (OD)” value (shortened to “viability of cortical neurons, MTT”) [1] read?
The value was 0.062 OD.

What about the “viability of cortical neurons, MTT” value [2] of the same compound?
The value was 0.062 OD.

And the “viability of cortical neurons, MTT” value [3]?
The value was 0.085 OD.

What about the “viability of cortical neurons, MTT” value [4] of the same compound?
Its value is 0.136 OD.

And the “viability of cortical neurons, MTT” value [5]?
The value was 0.217 OD.

What about the “viability of cortical neurons, MTT” value [6] of the same compound?
The value was 0.272 OD.

What about the “viability of cortical neurons, MTT” value [7] of the same compound?
Its value is 0.254 OD.

And the “viability of cortical neurons, MTT” value [8]?
The value was 0.257 OD.

And the “viability of cortical neurons, mean in % (control is 100%)” value (from here on “viability of cortical neurons, mean in %”) [9]?
The value was 97.85%.

And the “viability of cortical neurons, mean in %” value [10]?
Its value is 97.68%.

What about the “viability of cortical neurons, mean in %” value [11] of the same compound?
Its value is 134.51%.

What about the “viability of cortical neurons, mean in %” value [12] of the same compound?
The value was 213.12%.

And the “viability of cortical neurons, mean in %” value [13]?
The value was 341.82%.

What about the “viability of cortical neurons, mean in %” value [14] of the same compound?
The value was 429.54%.

What about the “maximum effect (viability, control 100%)” value [15] of the same compound?
The value was 430%.

And the “viability of cortical neurons, mean in %” value [15]?
Its value is 401.23%.

What about the “viability of cortical neurons, mean in %” value [16] of the same compound?
Its value is 406.75%.

What about the effect beyond control (added at 1DIV, MTT method) of the same compound?
The effect beyond control was 430%.

And the effective dose range (added at 1DIV, MTT method)?
The effective dose range was 45 to 702 µg/mL.

What about the “maximum effect in %” value (added at 1DIV, MTT method) of the same compound?
Its value is 430%.

What about the most effectice concentration (added at 1DIV, MTT method) of the same compound?
The most effectice concentration was 180 µg/mL.

What about the “effect above the control level” value (in higher concentrations (than that of the maximum effect)) of the same compound?
Its value is roughly 300%.

For HGFLPR [HGFLPR], which “viability of cortical neurons, MTT” value [1] is on record?
The value was 0.068 OD.

What about the “viability of cortical neurons, MTT” value [2] of the same compound?
Its value is 0.069 OD.

And the “viability of cortical neurons, MTT” value [3]?
The value was 0.069 OD.

What about the “viability of cortical neurons, MTT” value [4] of the same compound?
Its value is 0.067 OD.

And the “viability of cortical neurons, MTT” value [5]?
The value was 0.070 OD.

And the “viability of cortical neurons, MTT” value [6]?
Its value is 0.067 OD.

And the “viability of cortical neurons, MTT” value [7]?
Its value is 0.064 OD.

What about the “viability of cortical neurons, MTT” value [8] of the same compound?
Its value is 0.058 OD.

What about the “viability of cortical neurons, mean in %” value [9] of the same compound?
The value was 100.07%.

What about the “viability of cortical neurons, mean in %” value [10] of the same compound?
The value was 101.16%.

And the “viability of cortical neurons, mean in %” value [11]?
The value was 101.16%.

And the “viability of cortical neurons, mean in %” value [12]?
The value was 98.95%.

And the “viability of cortical neurons, mean in %” value [13]?
Its value is 102.25%.

What about the “viability of cortical neurons, mean in %” value [14] of the same compound?
Its value is 99.14%.

And the “viability of cortical neurons, mean in %” value [15]?
The value was 94.53%.

What about the “viability of cortical neurons, mean in %” value [16] of the same compound?
The value was 85.71%.

With NIVTPR [NIVTPR] as the compound, how does the “viability of cortical neurons, MTT” value [1] read?
The value was 0.068 OD.

What about the “viability of cortical neurons, MTT” value [2] of the same compound?
The value was 0.069 OD.

And the “viability of cortical neurons, MTT” value [3]?
The value was 0.068 OD.

And the “viability of cortical neurons, MTT” value [4]?
The value was 0.068 OD.

What about the “viability of cortical neurons, MTT” value [5] of the same compound?
The value was 0.066 OD.

What about the “viability of cortical neurons, MTT” value [6] of the same compound?
Its value is 0.064 OD.

And the “viability of cortical neurons, MTT” value [7]?
The value was 0.060 OD.

What about the “viability of cortical neurons, MTT” value [8] of the same compound?
Its value is 0.058 OD.

And the “viability of cortical neurons, mean in %” value [9]?
The value was 98.92%.

And the “viability of cortical neurons, mean in %” value [10]?
The value was 100.32%.

And the “viability of cortical neurons, mean in %” value [11]?
Its value is 98.70%.

What about the “viability of cortical neurons, mean in %” value [12] of the same compound?
The value was 98.75%.

What about the “viability of cortical neurons, mean in %” value [13] of the same compound?
Its value is 95.12%.

And the “viability of cortical neurons, mean in %” value [14]?
Its value is 92.28%.

And the “viability of cortical neurons, mean in %” value [15]?
The value was 86.60%.

And the “viability of cortical neurons, mean in %” value [16]?
The value was 83.13%.

How did the “viability of cortical neurons, MTT” value [1] turn out when NMVPFPR [NMVPFPR] was run?
Its value is 0.061 OD.

What about the “viability of cortical neurons, MTT” value [2] of the same compound?
The value was 0.060 OD.

What about the “viability of cortical neurons, MTT” value [3] of the same compound?
Its value is 0.057 OD.

What about the “viability of cortical neurons, MTT” value [4] of the same compound?
The value was 0.057 OD.

What about the “viability of cortical neurons, MTT” value [5] of the same compound?
Its value is 0.056 OD.

What about the “viability of cortical neurons, MTT” value [6] of the same compound?
Its value is 0.055 OD.

What about the “viability of cortical neurons, MTT” value [7] of the same compound?
The value was 0.055 OD.

And the “viability of cortical neurons, MTT” value [8]?
The value was 0.057 OD.

And the “viability of cortical neurons, mean in %” value [9]?
Its value is 98.06%.

What about the “viability of cortical neurons, mean in %” value [10] of the same compound?
Its value is 95.77%.

What about the “viability of cortical neurons, mean in %” value [11] of the same compound?
The value was 90.76%.

What about the “viability of cortical neurons, mean in %” value [12] of the same compound?
Its value is 90.55%.

And the “viability of cortical neurons, mean in %” value [13]?
Its value is 89.54%.

And the “viability of cortical neurons, mean in %” value [14]?
Its value is 87.76%.

And the “viability of cortical neurons, mean in %” value [15]?
The value was 87.79%.

And the “viability of cortical neurons, mean in %” value [16]?
Its value is 91.24%.

Reference: patent US8034778B2, “Neuroprotective compounds and uses thereof” (Ever Neuro Pharma GmbH, priority 2006, dated 2011)
